Results as given in ChEMBL document CHEMBL4007475, “Green synthesis of novel spiro-indenoquinoxaline derivatives and their cholinesterases inhibition activity” (Bioorg Med Chem, 2017).
pIC50: −log10 of the molar value.

Columns and labels:
[1] = biological target: Acetylcholinesterase (Homo sapiens, UniProt P22303); assay: Inhibition of acetylcholinesterase (unknown origin) using acetylthiocholine as substrate preincubated for 20 mins followed by substrate addition by Ellmans method
[2] = biological target: Cholinesterase (Homo sapiens, UniProt P06276); assay: Inhibition of butyrylcholinesterase (unknown origin) using acetylthiocholine as substrate preincubated for 20 mins followed by substrate addition by Ellmans method
Sequence of Cholinesterase (P06276 whole entry): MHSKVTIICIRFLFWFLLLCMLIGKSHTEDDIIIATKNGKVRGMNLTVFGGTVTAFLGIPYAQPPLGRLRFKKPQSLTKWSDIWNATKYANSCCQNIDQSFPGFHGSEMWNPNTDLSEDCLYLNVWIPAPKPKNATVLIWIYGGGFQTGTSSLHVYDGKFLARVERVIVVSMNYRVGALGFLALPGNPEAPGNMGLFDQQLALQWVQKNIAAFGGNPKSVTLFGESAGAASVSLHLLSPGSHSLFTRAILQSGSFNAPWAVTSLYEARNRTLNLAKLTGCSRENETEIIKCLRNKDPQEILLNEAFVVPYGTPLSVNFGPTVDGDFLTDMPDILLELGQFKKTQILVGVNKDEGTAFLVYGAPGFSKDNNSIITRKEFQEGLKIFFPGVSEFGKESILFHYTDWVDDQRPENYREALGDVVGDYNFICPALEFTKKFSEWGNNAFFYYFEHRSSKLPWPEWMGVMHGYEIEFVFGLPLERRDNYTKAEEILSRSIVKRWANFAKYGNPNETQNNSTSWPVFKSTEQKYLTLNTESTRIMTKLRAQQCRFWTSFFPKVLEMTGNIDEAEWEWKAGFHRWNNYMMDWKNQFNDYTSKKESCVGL

[3] = species on record: Homo sapiens; assay: Selectivity index, ratio of IC50 for butyrylcholinesterase (unknown origin) to IC50 for acetylcholinesterase (unknown origin)
[4] = species on record: Homo sapiens; assay: Selectivity index, ratio of IC50 for acetylcholinesterase (unknown origin) to IC50 for butyrylcholinesterase (unknown origin)
[5] = system: HepG2; assay: Cytotoxicity against human HepG2 cells after 48 hrs by MTT assay; format: cell-based; conditions: HepG2, 48 h
[6] = species on record: Homo sapiens; assay: Selectivity for acetylcholinesterase (unknown origin) over butyrylcholinesterase (unknown origin)

Sequence of Acetylcholinesterase (P22303 whole entry): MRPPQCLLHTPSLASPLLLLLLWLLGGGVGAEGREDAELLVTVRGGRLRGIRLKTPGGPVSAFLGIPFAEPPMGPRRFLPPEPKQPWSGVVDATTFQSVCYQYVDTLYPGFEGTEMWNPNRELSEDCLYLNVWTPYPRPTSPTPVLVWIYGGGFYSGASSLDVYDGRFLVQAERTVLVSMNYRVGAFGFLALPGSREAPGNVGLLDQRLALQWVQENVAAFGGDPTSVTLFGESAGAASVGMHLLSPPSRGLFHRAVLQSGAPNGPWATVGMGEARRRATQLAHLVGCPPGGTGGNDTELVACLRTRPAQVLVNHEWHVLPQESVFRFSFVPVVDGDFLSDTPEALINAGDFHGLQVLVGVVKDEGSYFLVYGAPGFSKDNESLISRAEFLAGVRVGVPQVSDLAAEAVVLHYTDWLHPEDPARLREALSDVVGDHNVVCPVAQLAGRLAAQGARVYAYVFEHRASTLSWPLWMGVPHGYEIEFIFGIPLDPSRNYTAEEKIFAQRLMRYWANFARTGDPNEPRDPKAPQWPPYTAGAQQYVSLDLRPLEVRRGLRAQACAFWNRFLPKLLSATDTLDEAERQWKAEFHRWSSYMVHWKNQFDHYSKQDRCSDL

SMILES | pIC50 [1] | pIC50 [2] | Ratio IC50 [3] | Ratio IC50 [4] | pIC50 [5] | Selectivity ratio [6]
CC1(C)CNC2=C([N+](=O)[O-])C3(C(C#N)=C(N)N2C1)c1ccccc1-c1nc2ccccc2nc13 (stereo unspecified) | 5.37 | 5.01 | 2.28 | 0.438 | 3.74 | –
CC1(C)CNC2=C([N+](=O)[O-])C3(C(C#N)=C(N)N2C1)c1ccccc1-c1nc2ccc([N+](=O)[O-])cc2nc13 (stereo unspecified) | 5.44 | 5.00 | 2.81 | 0.356 | 3.77 | –
N#CC1=C(N)N2CCNC2=C([N+](=O)[O-])C12c1ccccc1-c1nc3ccc([N+](=O)[O-])cc3nc12 (stereo unspecified) | 5.19 | 5.02 | 1.48 | 0.677 | 3.76 | –
COc1cc2c(cc1OC)C(=O)C(CC1CCN(Cc3ccccc3)CC1)C2 (stereo unspecified) | – | – | – | – | – | 10000
Cc1cc2nc3c(nc2cc1C)C1(C(C#N)=C(N)N2CC(C)(C)CNC2=C1[N+](=O)[O-])c1ccccc1-3 (stereo unspecified) | 5.40 | 5.06 | 2.2 | 0.454 | 3.74 | –
N#CC1=C(N)N(Cc2ccccc2)C(NCc2ccccc2)=C([N+](=O)[O-])C12c1ccccc1-c1nc3ccccc3nc12 (stereo unspecified) | 5.28 | 5.07 | 1.62 | 0.616 | 3.72 | –
Cc1cc2nc3c(nc2cc1C)C1(C(C#N)=C(N)N(Cc2ccccc2)C(NCc2ccccc2)=C1[N+](=O)[O-])c1ccccc1-3 (stereo unspecified) | 5.24 | 5.05 | 1.53 | 0.651 | 3.76 | –
N#CC1=C(N)N2CCCNC2=C([N+](=O)[O-])C12c1ccccc1-c1nc3ccccc3nc12 (stereo unspecified) | 5.38 | 4.99 | 2.43 | 0.411 | 3.76 | –
Cc1cc2nc3c(nc2cc1C)C1(C(C#N)=C(N)N2CCCNC2=C1[N+](=O)[O-])c1ccccc1-3 (stereo unspecified) | 5.24 | 5.02 | 1.67 | 0.6 | 3.77 | –
N#CC1=C(N)N2CCNC2=C([N+](=O)[O-])C12c1ccccc1-c1nc3ccccc3nc12 (stereo unspecified) | 5.19 | 5.08 | 1.31 | 0.761 | 3.71 | –
Cc1cc2nc3c(nc2cc1C)C1(C(C#N)=C(N)N2CCNC2=C1[N+](=O)[O-])c1ccccc1-3 (stereo unspecified) | 5.18 | 5.14 | 1.11 | 0.904 | 3.75 | –
N#CC1=C(N)N2CCCNC2=C([N+](=O)[O-])C12c1ccccc1-c1nc3ccc([N+](=O)[O-])cc3nc12 (stereo unspecified) | 5.41 | 5.01 | 2.49 | 0.402 | 3.79 | –
N#CC1=C(N)N(Cc2ccccc2)C(NCc2ccccc2)=C([N+](=O)[O-])C12c1ccccc1-c1nc3ccc([N+](=O)[O-])cc3nc12 (stereo unspecified) | 5.36 | 5.04 | 2.07 | 0.483 | 3.78 | –
